From patent publication US5595969A, “Variants of human corticosteroid binding globulin” (Allelix Biopharmaceutical Inc., priority 1995, dated 1997)
Numbering of substitutions follows the chain as printed.

Columns and labels:
[1] = biological target: T1, human corticosteroid binding globulin (CBG) variant glycosylated solely at position 74 (Homo sapiens, UniProt P08185, N176Q/N260Q/N31Q/N330Q/N369Q); assay: Steroid binding of CBG variant with [3H]-cortisol; settings: CHO culture media
T1 construct: made in house; host or cells: CHO cells (CHO pro), measured in culture medium
T1 sequence (P08185 23-405 N31Q/N176Q/N260Q/N330Q/N369Q): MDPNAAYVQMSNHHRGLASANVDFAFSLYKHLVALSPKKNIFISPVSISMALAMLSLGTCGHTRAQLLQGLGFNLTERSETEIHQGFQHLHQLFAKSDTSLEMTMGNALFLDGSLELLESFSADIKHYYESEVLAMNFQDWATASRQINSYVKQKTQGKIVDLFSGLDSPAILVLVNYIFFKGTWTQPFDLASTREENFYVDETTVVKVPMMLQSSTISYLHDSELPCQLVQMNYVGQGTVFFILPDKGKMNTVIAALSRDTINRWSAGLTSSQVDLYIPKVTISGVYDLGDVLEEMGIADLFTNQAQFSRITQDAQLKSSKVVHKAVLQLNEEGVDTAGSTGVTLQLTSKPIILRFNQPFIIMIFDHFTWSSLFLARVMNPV
Description: Chim. Acta, 1983, 132:101. Initially, samples of culture media were added to tubes of PBS containing [^3 H]-cortisol. The mixture in the tubes was vortex mixed and incubated at room temperature for 1 h followed by a further incubation in an ice-water for 15 min. Dextran-coated charcoal (DCC) suspension at 0° C. […] The tubes were incubated for […] 0° C. […] The binding capacity of the CBG variants was calculated in nmol/L after correction for dilution and the dissociation of bound complexes during the DCC treatment (12% for CBG). The affinity of the CBG variants for cortisol was measured using the Scatchard analysis. Prior to conducting the affinity measurement, the culture media was concentrated using *Centricon microconcentrators (Amicon).

[2] = biological target: T2, human corticosteroid binding globulin (CBG) variant Thr240 to Ala (glycosylation site 238 disrupted) (Homo sapiens, UniProt P08185, T262A); assay: Steroid binding capacity by saturation analysis with [3H]-cortisol, dextran-coated charcoal; settings: CHO culture media
T2 construct: in order to isolate a full-length CBG cDNA; made in house; host or cells: CHO cells (CHO pro), measured in culture medium
T2 sequence (P08185 23-405 T262A): T1 sequence (P08185 23-405 N31Q/N176Q/N260Q/N330Q/N369Q) with Q9N, Q154N, Q238N, T240A, Q308N, Q347N
Description: (§1) The steroid binding capacity of the CBG variants in the culture media was measured by saturation analysis using as a labelled ligand [^3 H]-cortisol (55.8 Ci/mmol) obtained from DuPont, and dextran-coated charcoal as a separation agent as described by Hammond et al. in Clin. Chim. Acta, 1983, 132:101.
(§2) Initially, samples of culture media were added to tubes of PBS containing [^3 H]-cortisol. The mixture in the tubes was vortex mixed and incubated at room temperature for 1 h followed by a further incubation in an ice-water for 15 min. Dextran-coated charcoal (DCC) suspension at 0° C. (1.25 g Norit "A"(Amend Drug and Chemical Co.) and 0.125 g Dextran T-70 (AB Pharmacia) in 0.01 mol/l phosphate-buffered saline containing 0.1% gelatin, pH7) was added to the tubes to bind excess labelled cortisol. The tubes were incubated for […] 0° C. After centrifugation at 3000 X g for 5 min at 4° C. to sediment the DCC, the supernatants were decanted into scintillation counting vials containing 4 ml Aqueous Counting Scintillant (Amersham), which were capped, shaken and counted for 10 min or until 10,000 cpm had accumulated. The binding capacity of the CBG variants was calculated in nmol/L after correction for dilution and the dissociation of bound complexes during the DCC treatment (12% for CBG).

[3] = biological target: T3, human corticosteroid binding globulin (CBG) variant Asn238 to Gln (glycosylation site 238 disrupted) (Homo sapiens, UniProt P08185, N260Q); assay: as above; settings: CHO culture media
T3 construct: made in house; host or cells: CHO cells (CHO pro), measured in culture medium
T3 sequence (P08185 23-405 N260Q): T1 sequence (P08185 23-405 N31Q/N176Q/N260Q/N330Q/N369Q) with Q9N, Q154N, Q308N, Q347N
Description: as §1, §2

[4] = biological target: T4, human corticosteroid binding globulin (CBG), native (Homo sapiens, UniProt P08185); settings: 4° C., physiological pH; read-out: binding affinity of the natural cortisol ligand for CBG; cited from earlier work
T4 sequence (P08185 23-405): T1 sequence (P08185 23-405 N31Q/N176Q/N260Q/N330Q/N369Q) with Q9N, Q154N, Q238N, Q308N, Q347N

[5] = biological target: T5, human corticosteroid binding globulin (CBG) variant glycosylated solely at position 238 (sites 9, 74, 154, 308, 347 disrupted, Asn to Gln) (Homo sapiens, UniProt P08185, N176Q/N31Q/N330Q/N369Q/N96Q); assay: Affinity for cortisol by Scatchard analysis, [3H]-cortisol with increasing unlabelled cortisol; settings: concentrated CHO culture media, read-out: K8 (affinity for cortisol) (converted)
T5 construct: made in house; host or cells: CHO cells (CHO pro), measured in culture medium
T5 sequence (P08185 23-405 N31Q/N96Q/N176Q/N330Q/N369Q): T1 sequence (P08185 23-405 N31Q/N176Q/N260Q/N330Q/N369Q) with N74Q, Q238N
Description: as §1, §2
(§3) The affinity of the CBG variants for cortisol was measured using the Scatchard analysis.

[6] = biological target: T6, human corticosteroid binding globulin (CBG) variant glycosylated at positions 74 and 238 (Homo sapiens, UniProt P08185, N176Q/N31Q/N330Q/N369Q); assay: as above; settings: concentrated CHO culture media
T6 construct: in order to isolate a full-length CBG cDNA; made in house; host or cells: CHO cells (CHO pro), measured in culture medium
T6 sequence (P08185 23-405 N31Q/N176Q/N330Q/N369Q): T1 sequence (P08185 23-405 N31Q/N176Q/N260Q/N330Q/N369Q) with Q238N
Description: as §1, §2, §3

**Q.** What does the source list for `C[C@]12CCC(=O)C=C1CC[C@@H]1[C@@H]2[C@@H](O)C[C@@]2(C)[C@H]1CC[C@]2(O)C(=O)CO` [cortisol]?
**A.** steroid-binding activity [1]: no steroid-binding activity; steroid-binding activity [2]: complete loss of steroid-binding activity; steroid-binding activity [3]: complete loss of steroid-binding activity; Kd [4]: ~0.7 nM; Kd [5]: 9.09 nM; K4 (steroid-binding affinity) [6]: 1.9e+08 M⁻¹
